How the values were obtained:
catalase = conditions: cited from earlier work
[1] = biological target: human dihydrofolate reductase (DHFR); design: method as in PMID 20054477; conditions: fluorescence quenching; cited from earlier work
[2] = biological target: T1, Catalase (from bovine liver) (Bos taurus, UniProt P00432); assay: Fluorimetric titration: quenching of catalase fluorescence by catechins; type: binding; conditions: double logarithmic plot, 25°C; for Kd: pH 7.4, λex 280 nm, read-out: binding constant K with catalase (fluorimetric) (converted)
T1 construct: Catalase (from bovine liver); purchased Sigma-Aldrich, St. Louis, MO, USA; host or cells: bovine liver
T1 sequence (P00432 2-527 limits assumed): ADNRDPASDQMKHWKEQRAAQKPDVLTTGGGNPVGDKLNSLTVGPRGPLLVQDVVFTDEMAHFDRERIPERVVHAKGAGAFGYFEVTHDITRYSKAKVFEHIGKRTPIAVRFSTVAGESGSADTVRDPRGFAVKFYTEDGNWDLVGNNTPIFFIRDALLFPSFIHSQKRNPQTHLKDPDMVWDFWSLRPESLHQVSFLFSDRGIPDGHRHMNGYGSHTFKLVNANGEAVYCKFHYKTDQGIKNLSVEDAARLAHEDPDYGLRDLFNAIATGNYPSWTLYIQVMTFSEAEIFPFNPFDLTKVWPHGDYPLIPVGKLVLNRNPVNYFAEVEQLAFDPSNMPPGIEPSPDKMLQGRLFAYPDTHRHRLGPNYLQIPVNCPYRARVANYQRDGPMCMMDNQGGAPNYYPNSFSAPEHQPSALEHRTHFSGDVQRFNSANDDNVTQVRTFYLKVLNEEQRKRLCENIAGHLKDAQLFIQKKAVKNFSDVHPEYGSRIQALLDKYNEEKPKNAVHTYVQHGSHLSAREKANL
Procedure: Fluorescence spectra were recorded using a Perkin Elmer fluorescence spectrophotometer (LS-55) equipped with 150 W Xenon flash lamp and using fluorescence-free quartz cell of 1 cm path length. The widths of excitation and emission slits were set to 5 nm, and scan speed (100 nm/min), excitation voltage were kept constant for each data set. Quantitative analysis of the potential interaction between catechins and catalase was performed by the fluorimetric titration technique. Briefly, solution of catalase (5×10^−7 M, as calculated using molar extinction coefficient of 3.24×10^5 M^−1 s^−1 at 405 nm for catalase) in 50 mM phosphate buffer of pH 7.4 was titrated in cuvette by successive additions of individual catechin solution aliquots from a stock of 5×10^−7 M. Fluorescence emission spectra were recorded in the wavelength range of 290–450 nm upon excitation at 280 nm when catalase samples were titrated with catechins. All experiments were carried out at room temperature. Fluorescence intensity was measured at 340 nm of protein emission spectra. Fluorescence spectra of individual catechins in buffer were recorded as blanks under the same experimental conditions and subtracted from the corresponding sample to correct the fluorescence background.
The binding constants and the number of binding sites involved were calculated according to the relation: log (F0–F)/F = log K+n log [Q], where K is the binding constant and n is the number of binding sites, F0 is the fluorescence intensity of free catalase, F is the consecutive fluorescence on addition of catechins, and [Q] is the concentration of the quencher (here catechins). A plot of log (F0– F)/F and log [Q] was used to determine the values of K and n from the intercept and the slope respectively (Figure 3 A–D).

[3] = biological target: T1, Catalase (from bovine liver); assay: Inhibition of pure catalase activity (cell free), H2O2 decay at 240 nm; type: biochemical; conditions: pure catalase, 50 µM each, 1 h incubation
Procedure: Absorption spectrophotometer (Varian, CARY 100 Bio, USA) was used to determine pure catalase activity (cell free). Briefly, 900 µl of H2O2 (0.036%) was taken in quartz cell of 1 cm path length and its absorbance was recorded at 240 nm. To the solution, 100 µl of catalase (50 U/ml) was added and the decrease in absorbance was recorded at 10 s interval. This experiment was performed in presence 50 µM each of four catechins and 3-AT separately to evaluate the inhibitory effect of catechins on catalase activity, after 1 h incubation.
On addition of catechins, a decrease in rate of H2O2 degradation i.e. a decrease in pure catalase activity was observed which is represented in Figure 6A. Catechins with galloyl moiety (ECG and EGCG) reduced catalase activity more than its non-gallated counterparts i.e. EGC and EC. However, Inhibition by EGCG is the closest to inhibition by known catalase inhibitor 3-AT.

[4] = biological target: T1, Catalase (from bovine liver); assay: Circular dichroism: catechin-induced conformational change in catalase; conditions: catalase 1 µM, ligands 3 µM each, 25°C
Procedure: All the CD experiments were carried out on a Jasco-815 automatic spectropolarimeter (Jasco International Co., Ltd. Hachioji, Japan) equipped with a peltier cuvette holder and temperature controller PFD425 L/15. The catalase concentration and path length of the cuvette used were 1 µM and 0.1 cm, respectively. The instrument parameters were set at scanning speed of 50 nm/min, bandwidth of 1.0 nm and sensitivity of 100 milli degree. The molar ellipticity values are expressed in terms of mean residue molar ellipticity, in units of deg. cm^2 dmol^−1.
CD allows investigation of the conformational changes that occur in a protein upon ligand binding. The CD spectra of catalase at pH 7.4 in the absence and in the presence of EGC, EC, ECG, EGCG, and 3-AT at 25°C are represented in Figure 5 (a – f). […] The negative band at 208 and 220 nm decreased in intensity with the addition of various catechins, which is indicative of the loss of α-helicity upon interaction. […] From the CD spectra, the effect of catechins on the secondary structure of catalase is in the following order: 3-AT>EGCG>ECG>EC>EGC.

[5] = biological target: T1, Catalase (from bovine liver); assay: Isothermal titration calorimetry of catechins binding to catalase; conditions: 25°C; for ΔG / ΔH / ΔS: ITC; for ΔG: calculated from the average values of ΔH; for ΔH / ΔS: directly extracted from the experiment; for Kd: one-site binding model, from ΔG = −RT ln K, read-out: binding constant with catalase (ITC) (converted)
Procedure: The energetics of the binding of catechins to catalase was studied by ITC using a MicroCal ITC200, (Northampton, MA, USA). All solutions were degassed under vacuum (140 mbar, 10 min) on the MicroCal’s Thermovac unit to eliminate air bubble formation inside the calorimeter cell. Briefly, the calorimeter syringe was filled with a concentrated solution of catechins (10 µM each). Successive injections of this solution into 1 µM solution of catalase in the calorimeter cell were effected from the rotating syringe with constant stirring of the solution. The titration and analysis were performed through Origin 7 software provided with the unit.
ITC directly measures the heat released during a chemical reaction. ITC can reveal the stoichiometry, enthalpy free energy, and entropy changes that occur over the course of a reaction, [46]. Data obtained from the titration are presented by the series of peaks corresponding to each injection. Usually, this representation is transformed into the apparent heat change between two injections as a function of the titrant ratio by means of integration of power differential with regard to time. ITC has been used mainly to quantify interactions in various biochemical systems [47]–[49]. ITC has been used in the present study to determine binding affinity and other thermodynamic parameters of catechins-catalase interaction. Representative isothermal calorimetric heat profiles for the binding of catechins-catalase interaction, at physiological pH and 25°C are shown in Figure 4 (A–D). The data were corrected for the heat of dilution of catechins, which was determined in a separate set of experiments under identical conditions. The titration and analysis were performed using one-site binding model through Origin 7 software provided with the unit. From Figure 4 it is observed that the titration of catalase with all the four catechins yield negative heat deflections. EC, EGC, ECG, and EGCG bind to catalase with binding constants 2.13×10^5, 1.92×10^5, 6.36×10^5, and 8.19×10^5 M^−1, respectively, as determined by the following equation: ΔG = −RT ln K, where ΔG is the free energy, R and T are the gas constant and temperature, respectively, K is the binding constant.

K562 cells = assay: MTT cell viability assay; type: cell-based; conditions: Homo sapiens
Procedure: Cell viability of K562 cells was quantified by MTT based colorimetric assay as described elsewhere. Briefly, cells were rinsed with PBS and 0.5 mg/ml MTT was added into each sample. The mixture was incubated at 37°C for an additional 3 h. At the end of incubation period, the medium containing MTT was removed and the pellet was dissolved in 200 µl DMSO. Absorbance was measured at a wavelength of 570 nm. Cell viability was expressed as a percentage of the control culture.
The concentration (IC50) at which the K562 cell survivability was reduced to 50% was calculated for EGCG and 3-AT by MTT based cell viability assay.

Row | Molecule | binding constant of catalase-microcystin complex (catalase) | Kd [1] | number of binding sites n [2] | Kd [2] | order of inhibition of catalase activity [3] | order of effect on the secondary structure of catalase (loss of α-helicity) [4] | ΔG [5] | ΔH [5] | ΔS [5] | Kd [5] | binding to DHFR [1] | IC50 (K562 cells)
1 | microcystin | 61200 M⁻¹ |  |  |  |  |  |  |  |  |  |  | 
2 | O=C(OC1Cc2c(O)cc(O)cc2OC1c1ccc(O)c(O)c1)c1cc(O)c(O)c(O)c1 (single isomer, unassigned; (-)) [ECG, (−)-epicatechin gallate] |  | 1.8 µM | single binding site | 0.602 µM | 3-AT>EGCG>ECG>EC>EGC | 3-AT>EGCG>ECG>EC>EGC | -7.8 kcal/mol | -756 ± 30.2 kcal/mol | −2.60×10^3 cal/mol/K | 1.57 µM |  | 
3 | Oc1cc(O)c2c(c1)OC(c1cc(O)c(O)c(O)c1)C(O)C2 (single isomer, unassigned; (-)) [EGC, (−)-epigallocatechin] |  |  | single binding site | 12.7 µM | 3-AT>EGCG>ECG>EC>EGC | 3-AT>EGCG>ECG>EC>EGC | -7.1 kcal/mol | -3.2e+06 ± 106000 kcal/mol | −1.07×10^7 cal/mol/K | 5.21 µM | did not bind | 
4 | Nc1nc[nH]n1 [3-AT, 3-amino-1,2,4-triazole, reference compound] |  |  |  |  | 3-AT>EGCG>ECG>EC>EGC | 3-AT>EGCG>ECG>EC>EGC |  |  |  |  |  | 10.5 µM
5 | Oc1cc(O)c2c(c1)O[C@H](c1ccc(O)c(O)c1)[C@H](O)C2 [EC, (−)-epicatechin] |  |  | single binding site | 9.26 µM | 3-AT>EGCG>ECG>EC>EGC | 3-AT>EGCG>ECG>EC>EGC | -7.17 kcal/mol |  | −2.40×10^7 cal/mol/K | 4.69 µM | did not bind | 

From publication PMC4099323, “Inhibition of Catalase by Tea Catechins in Free and Cellular State: A Biophysical Approach” (PLoS ONE, 2014)
